Data on two molecules can be found in ChEMBL document CHEMBL1152402, “Discovery of a new class of catalytic topoisomerase II inhibitors targeting the ATP-binding site by structure based design. Part I” (Bioorg Med Chem Lett, 2009).

SMILES strings stand for the structures.

Assay [1] concerns the target T1, DNA topoisomerase 2-alpha (Homo sapiens, UniProt P11388). Kind of assay: Inhibition of ATPase activity of human topoisomerase 2 alpha.
Assay [2] has as its target T1, DNA topoisomerase 2-alpha. The assay can be described thus: Inhibition of ATPase activity of human topoisomerase 2 alpha at 10 uM.

T1 sequence (P11388 whole entry): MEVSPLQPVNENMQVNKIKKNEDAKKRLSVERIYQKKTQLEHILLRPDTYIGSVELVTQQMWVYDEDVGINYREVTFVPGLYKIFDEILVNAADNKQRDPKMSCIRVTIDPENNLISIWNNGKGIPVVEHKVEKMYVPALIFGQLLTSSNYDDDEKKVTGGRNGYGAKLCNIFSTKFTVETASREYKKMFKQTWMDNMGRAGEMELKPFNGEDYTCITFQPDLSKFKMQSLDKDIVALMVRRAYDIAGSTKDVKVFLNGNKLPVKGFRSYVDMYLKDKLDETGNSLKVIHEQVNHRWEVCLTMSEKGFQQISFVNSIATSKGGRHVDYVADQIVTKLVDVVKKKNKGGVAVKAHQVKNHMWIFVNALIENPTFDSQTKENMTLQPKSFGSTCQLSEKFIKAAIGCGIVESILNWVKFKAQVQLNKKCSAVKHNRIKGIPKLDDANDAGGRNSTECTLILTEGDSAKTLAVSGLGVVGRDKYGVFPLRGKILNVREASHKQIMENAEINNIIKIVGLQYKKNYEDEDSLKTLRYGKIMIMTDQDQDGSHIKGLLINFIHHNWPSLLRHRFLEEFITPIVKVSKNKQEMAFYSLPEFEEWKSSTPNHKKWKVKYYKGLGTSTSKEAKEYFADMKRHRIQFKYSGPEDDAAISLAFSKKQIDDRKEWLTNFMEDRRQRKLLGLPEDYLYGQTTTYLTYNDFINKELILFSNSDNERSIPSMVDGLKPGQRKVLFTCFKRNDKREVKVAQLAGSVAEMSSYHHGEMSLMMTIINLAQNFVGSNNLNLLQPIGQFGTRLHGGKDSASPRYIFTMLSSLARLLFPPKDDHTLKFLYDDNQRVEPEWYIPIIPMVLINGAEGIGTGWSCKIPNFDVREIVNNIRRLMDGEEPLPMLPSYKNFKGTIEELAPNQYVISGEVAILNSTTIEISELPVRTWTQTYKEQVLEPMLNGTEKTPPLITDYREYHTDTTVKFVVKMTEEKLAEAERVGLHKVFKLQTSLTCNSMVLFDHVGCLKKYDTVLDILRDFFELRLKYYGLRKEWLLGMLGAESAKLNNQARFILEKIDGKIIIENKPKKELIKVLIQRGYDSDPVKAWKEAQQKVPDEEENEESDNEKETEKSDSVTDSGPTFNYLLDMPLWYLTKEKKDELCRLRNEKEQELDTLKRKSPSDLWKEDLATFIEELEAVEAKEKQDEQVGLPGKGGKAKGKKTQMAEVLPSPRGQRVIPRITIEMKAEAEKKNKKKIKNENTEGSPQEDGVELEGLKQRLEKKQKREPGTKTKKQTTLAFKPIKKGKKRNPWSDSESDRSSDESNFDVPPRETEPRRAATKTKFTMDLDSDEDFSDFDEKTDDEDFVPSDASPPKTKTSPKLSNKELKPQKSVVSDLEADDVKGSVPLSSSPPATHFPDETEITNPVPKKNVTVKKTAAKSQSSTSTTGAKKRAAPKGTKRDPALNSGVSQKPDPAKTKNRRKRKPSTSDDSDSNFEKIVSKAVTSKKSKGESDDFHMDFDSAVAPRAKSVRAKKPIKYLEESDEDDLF

For orientation: IC50 means the concentration at which inhibition is half-maximal. Higher therefore signals weaker potency in that assay. As to `CC(C)(C)Nc1nc(Nc2ccc3ncsc3c2)nc2[nH]cnc12`, 1.7 µM corresponded to half-maximal inhibition in assay [1] (IC50).

A word on the inhibition: it is the drop in the measured response relative to a control, in per cent. A low value points to little suppression. On to `Cn1cnc2c(NC(C)(C)C)nc(Nc3ccc4ncsc4c3)nc21`, for which the inhibition in assay [2] came to 7%.
